Tests used:
Experiment in all cases: Kinase selectivity, DiscoverX scanMAX Kinase assay panel (% control)
Assay type in all cases: binding
[1] = molecular target: T1, kinases of the scanMAX Kinase assay panel (Homo sapiens, UniProt P07949, V804L); settings: kinase RET(V804L); 1 uM in DMSO
T1 construct: purchased DiscoverX Co. (contract measurement) scanMAX Kinase assay panel
Procedure, shortened: (§1)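 Read-out is % control, normalised so a positive-control compound sits at 0% and DMSO at 100%: (test − positive)/(negative − positive)×100. Each kinase received the compound at 1 uM in DMSO. A value below 35% counts as activity.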

[2] = molecular target: T2, kinases of the scanMAX Kinase assay panel (Homo sapiens, UniProt Q13873); settings: BMPR2; 1 uM
T2 construct: purchased DiscoverX Co. (contract measurement) scanMAX Kinase assay panel
T2 sequence (Q13873 27-1038): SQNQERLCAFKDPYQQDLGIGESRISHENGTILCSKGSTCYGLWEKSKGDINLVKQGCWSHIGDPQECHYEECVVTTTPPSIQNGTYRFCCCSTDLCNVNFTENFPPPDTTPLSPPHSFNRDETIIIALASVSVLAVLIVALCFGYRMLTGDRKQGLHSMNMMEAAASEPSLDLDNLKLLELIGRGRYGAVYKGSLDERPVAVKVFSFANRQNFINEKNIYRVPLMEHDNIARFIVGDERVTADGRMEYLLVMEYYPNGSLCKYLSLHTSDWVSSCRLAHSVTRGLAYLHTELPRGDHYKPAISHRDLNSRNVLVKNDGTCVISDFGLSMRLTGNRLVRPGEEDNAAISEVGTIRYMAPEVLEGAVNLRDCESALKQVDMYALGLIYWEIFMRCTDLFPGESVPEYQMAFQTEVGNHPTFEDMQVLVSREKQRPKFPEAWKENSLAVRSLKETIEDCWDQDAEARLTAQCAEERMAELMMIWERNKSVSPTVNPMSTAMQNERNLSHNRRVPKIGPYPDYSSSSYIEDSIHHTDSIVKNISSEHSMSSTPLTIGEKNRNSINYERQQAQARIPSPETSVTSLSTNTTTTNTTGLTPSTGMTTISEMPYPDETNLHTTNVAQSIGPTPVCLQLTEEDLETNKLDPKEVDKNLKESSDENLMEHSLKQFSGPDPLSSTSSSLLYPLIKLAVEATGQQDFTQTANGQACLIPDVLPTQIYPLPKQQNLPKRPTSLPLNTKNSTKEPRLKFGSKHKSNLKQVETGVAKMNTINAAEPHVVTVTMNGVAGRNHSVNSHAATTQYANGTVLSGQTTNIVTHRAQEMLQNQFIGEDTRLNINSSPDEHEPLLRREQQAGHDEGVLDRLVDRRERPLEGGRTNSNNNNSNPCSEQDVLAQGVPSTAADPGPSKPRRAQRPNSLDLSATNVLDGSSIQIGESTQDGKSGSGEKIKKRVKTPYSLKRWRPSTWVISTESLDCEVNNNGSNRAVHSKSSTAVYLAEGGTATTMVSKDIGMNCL
Procedure, shortened: as §1

[3] = molecular target: T3, kinases of the scanMAX Kinase assay panel (Homo sapiens, UniProt Q56UN5); settings: kinase YSK4; 1 uM in DMSO
T3 construct: purchased DiscoverX Co. (contract measurement) scanMAX Kinase assay panel
T3 sequence (Q56UN5 1-1328): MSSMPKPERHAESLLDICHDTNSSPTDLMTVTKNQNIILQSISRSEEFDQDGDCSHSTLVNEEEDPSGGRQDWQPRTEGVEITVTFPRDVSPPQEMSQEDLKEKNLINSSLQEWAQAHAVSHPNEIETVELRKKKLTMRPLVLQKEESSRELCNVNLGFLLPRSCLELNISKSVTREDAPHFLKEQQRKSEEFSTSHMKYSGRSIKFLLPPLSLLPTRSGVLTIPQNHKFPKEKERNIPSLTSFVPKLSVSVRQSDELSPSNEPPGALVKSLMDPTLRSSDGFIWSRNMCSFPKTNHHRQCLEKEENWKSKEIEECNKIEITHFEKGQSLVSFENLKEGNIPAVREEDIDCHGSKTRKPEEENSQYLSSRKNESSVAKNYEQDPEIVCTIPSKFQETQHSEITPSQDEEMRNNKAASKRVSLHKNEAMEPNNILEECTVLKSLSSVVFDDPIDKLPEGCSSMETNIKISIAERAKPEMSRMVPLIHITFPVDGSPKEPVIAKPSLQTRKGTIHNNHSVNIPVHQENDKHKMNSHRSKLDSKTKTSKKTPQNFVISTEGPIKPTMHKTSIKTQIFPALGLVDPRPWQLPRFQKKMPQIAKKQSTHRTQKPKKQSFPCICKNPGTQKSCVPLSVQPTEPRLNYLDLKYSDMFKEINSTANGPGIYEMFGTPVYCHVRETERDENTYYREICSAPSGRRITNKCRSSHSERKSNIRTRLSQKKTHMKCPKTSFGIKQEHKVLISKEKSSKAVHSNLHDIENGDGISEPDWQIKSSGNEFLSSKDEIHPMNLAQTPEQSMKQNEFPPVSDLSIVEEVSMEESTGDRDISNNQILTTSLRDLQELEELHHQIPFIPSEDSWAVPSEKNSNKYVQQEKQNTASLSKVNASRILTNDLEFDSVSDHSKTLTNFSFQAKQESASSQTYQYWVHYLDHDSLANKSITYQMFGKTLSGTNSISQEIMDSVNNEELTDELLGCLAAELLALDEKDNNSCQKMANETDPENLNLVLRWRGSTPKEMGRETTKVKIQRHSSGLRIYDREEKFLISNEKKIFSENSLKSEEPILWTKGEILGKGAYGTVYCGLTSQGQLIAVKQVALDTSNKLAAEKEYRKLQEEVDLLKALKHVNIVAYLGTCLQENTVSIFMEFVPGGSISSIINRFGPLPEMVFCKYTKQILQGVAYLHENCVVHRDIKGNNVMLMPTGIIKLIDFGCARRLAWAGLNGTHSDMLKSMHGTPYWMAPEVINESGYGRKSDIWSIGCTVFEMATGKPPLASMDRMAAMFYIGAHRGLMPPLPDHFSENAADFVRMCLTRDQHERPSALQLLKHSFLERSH
Procedure, shortened: as §1

[4] = molecular target: T4, kinases of the scanMAX Kinase assay panel (Homo sapiens, UniProt Q9H1R3); settings: MYLK2; 1 uM
T4 construct: purchased DiscoverX Co. (contract measurement) scanMAX Kinase assay panel
Procedure, shortened: as §1

T4 sequence (Q9H1R3 whole entry): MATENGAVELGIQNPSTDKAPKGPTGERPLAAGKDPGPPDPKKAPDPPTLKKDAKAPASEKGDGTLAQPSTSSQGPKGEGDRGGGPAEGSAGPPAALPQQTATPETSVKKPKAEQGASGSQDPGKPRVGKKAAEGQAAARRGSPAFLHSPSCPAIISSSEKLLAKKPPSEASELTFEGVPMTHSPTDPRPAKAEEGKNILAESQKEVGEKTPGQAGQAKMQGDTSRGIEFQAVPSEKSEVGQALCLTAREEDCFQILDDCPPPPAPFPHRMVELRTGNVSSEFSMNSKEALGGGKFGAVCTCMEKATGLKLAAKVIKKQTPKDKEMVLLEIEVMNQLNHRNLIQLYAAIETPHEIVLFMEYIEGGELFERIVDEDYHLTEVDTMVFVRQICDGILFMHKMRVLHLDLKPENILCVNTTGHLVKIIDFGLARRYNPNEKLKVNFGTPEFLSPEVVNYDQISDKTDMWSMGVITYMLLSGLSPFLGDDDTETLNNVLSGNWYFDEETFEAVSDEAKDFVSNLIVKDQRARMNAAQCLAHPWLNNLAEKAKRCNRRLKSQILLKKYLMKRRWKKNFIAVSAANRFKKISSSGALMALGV
T1 sequence (P07949 29-1114 V804L): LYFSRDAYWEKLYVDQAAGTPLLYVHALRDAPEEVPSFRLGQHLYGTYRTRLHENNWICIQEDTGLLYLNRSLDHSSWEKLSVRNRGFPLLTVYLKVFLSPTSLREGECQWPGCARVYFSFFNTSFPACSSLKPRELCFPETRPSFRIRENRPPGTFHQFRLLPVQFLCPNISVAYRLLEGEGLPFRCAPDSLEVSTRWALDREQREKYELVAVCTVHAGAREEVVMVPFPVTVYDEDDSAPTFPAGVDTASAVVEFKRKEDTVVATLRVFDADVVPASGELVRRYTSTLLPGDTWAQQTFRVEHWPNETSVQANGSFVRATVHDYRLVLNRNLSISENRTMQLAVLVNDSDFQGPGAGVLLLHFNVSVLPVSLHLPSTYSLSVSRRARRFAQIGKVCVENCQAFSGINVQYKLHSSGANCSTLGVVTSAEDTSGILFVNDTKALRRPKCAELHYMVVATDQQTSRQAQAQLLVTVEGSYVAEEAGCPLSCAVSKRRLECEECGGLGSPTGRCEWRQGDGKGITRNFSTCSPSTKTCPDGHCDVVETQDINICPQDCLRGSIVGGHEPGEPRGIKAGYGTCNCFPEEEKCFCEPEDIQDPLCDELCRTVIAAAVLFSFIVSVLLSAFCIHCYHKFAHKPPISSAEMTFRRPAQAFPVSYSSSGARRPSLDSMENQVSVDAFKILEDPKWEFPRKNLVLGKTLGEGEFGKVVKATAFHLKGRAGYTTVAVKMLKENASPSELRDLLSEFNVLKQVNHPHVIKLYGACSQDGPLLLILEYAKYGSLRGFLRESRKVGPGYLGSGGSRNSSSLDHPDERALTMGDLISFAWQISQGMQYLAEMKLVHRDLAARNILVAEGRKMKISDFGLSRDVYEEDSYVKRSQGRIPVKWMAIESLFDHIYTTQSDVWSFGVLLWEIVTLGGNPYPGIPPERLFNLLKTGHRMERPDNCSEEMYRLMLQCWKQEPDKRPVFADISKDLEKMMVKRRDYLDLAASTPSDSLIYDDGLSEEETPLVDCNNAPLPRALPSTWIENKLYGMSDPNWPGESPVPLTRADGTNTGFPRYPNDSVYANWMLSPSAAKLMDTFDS

Row | SMILES | remaining binding at 1 µM [1] [%] | remaining binding at 1 µM [2] [%] | remaining binding at 1 µM [3] [%] | remaining binding at 1 µM [4] [%]
1 | CC1(Nc2nc(Nc3cnn([C@H]4CCN(C5COC5)C[C@@H]4F)c3Cl)nc3[nH]cc(C#N)c23)CC1 [Example 52, 2-((5-chloro-1-((3S,4S)-3-fluoro-1-(oxetane-3-yl)piperidine-4-yl)-1H-pyrazole-4-yl)amino)((1-methylcyclopropyl)amino)-7H-pyrrolo[2,3-d]pyrimidine-5-carbonitrile] | 0 | 0.65 | 0 | 100
2 | CNc1nc(Nc2ccc(C(=O)N3CCOCC3)cc2OC)nc2[nH]cc(C#N)c12 [Example 1, 2-((2-methoxy-4-(morpholine-4-carbonyl)phenyl)amino)-4-(methylamino)-7H-pyrrolo[2,3-d]pyrimidine-5-carbonitrile] | 79 | 79 | 12 | 88
3 | CCNc1nc(Nc2ccc(C(=O)N3CCC(N4CCOCC4)CC3)cc2OC)nc2[nH]cc(C(F)(F)F)c12 [Example 104, (4-((4-(ethylamino)-5-(trifluoromethyl)-7H-pyrrolo[2,3-d]pyrimidine-2-yl)amino)-3-methoxyphenyl)(4-morpholinopiperidine-1-yl)methanone] | 89 | 100 | 94 | 100

Source: patent US11208412B2 (DAEGU-GYEONGBUK MEDICAL INNOVATION FOUNDATION, priority 2017, dated 2021)
